# Assay results from patent US8524691B2, “Phosphonated rifamycins and uses thereof for the prevention and treatment of bone and joint infections” (The Medicines Company, priority 2008, dated 2013).
# Where two headings read alike, the source gives them in different places.
# Legend:
# S. aureus ATCC 13709 [1] = assay: microbe, parasite or virus in culture; format: cell-based; conditions: for Minimum inhibitory concentration, S. aureus ATCC 13709: CAMHB, 37° C., 18 h
# How it was run: (§1)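 Two-fold serial dilutions in DMSO were tested in cation-adjusted Mueller Hinton broth, following NCCLS M26-A, at 5×10^5 c.f.u./mL with 1.25% DMSO final, in duplicate. Plates were incubated at 37 °C for 18 h. MIC was the lowest concentration inhibiting visible growth.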
# [2] = format: in vitro ADME; conditions: for % Conversion (prodrug converted to parent drug after binding to bone): 24 h incubation, 37° C.
# Procedure: Amounts of parent drug “regenerated” from the phosphonated prodrug were measured as follows. Washed bone powder-bound prodrugs from the above experiment were resuspended in 400 μL PBS+2% DMSO or in 400 μL 50% (v/v in PBS+2% DMSO) human or rat serum. The suspension was incubated overnight at 37° C., centrifuged at 13,000 rpm for 2 min and the supernatant was recovered. The amount of regenerated parent drug in the supernatant was determined by measurements using the microbiological assay that was previously described for the prodrugs themselves. The amount of prodrug was deduced from standard curves of known amounts of parent drug that were used as reference for each experiment. The amount of regenerated drug assessed by this bioassay was corroborated by MIC determination. The percentage of drug regenerated in PBS or serum after the overnight incubation (Table 2) was deduced from the difference between the amount of bound prodrug and the amount of regenerated drug (not shown).
# [3] = test system: S. aureus ATCC 13709^A, Novobiocin and Rifampicin resistant variant; assay: Antibacterial susceptibility (MIC), NCCLS broth microdilution; format: cell-based
# How it was run: as §1
# S. aureus ATCC 29213 = assay: as above; format: cell-based; conditions: CAMHB, 37° C., 18 h
# How it was run: as §1
# [4] = test system: Novobiocin resistant mutant strain of S. aureus ATCC 13709; assay: Prophylactic efficacy in rat model of S. aureus bone infection; format: in vivo; conditions: for Measured bacterial titer, test compound: 20 mg/kg parent drug equivalent, tibia 24 h postinfection; for Prophylactic activity in rat bone infection model (in words): 20 mg/kg, 1 day or 5 days prior to infection
# Procedure: To determine the in vivo activity of bisphosphonated prodrugs of Rifamycin derived antibacterials in comparison to their non-bisphosphonated parents, compounds 18, 19, 48a, 59, 66, 89, 95, 102, 110, 142b and 164 and their parent drug rifabutin were used as prophylactic therapeutics in an animal model of infection. Specifically, a spontaneous Novobiocin resistant mutant strain of S. aureus ATCC 13709 (a clinical osteomyelitis isolate), was grown overnight at 37° C. in brain heart infusion broth (BHIB). After 16 h of growth, cells were subcultured into fresh BHIB and incubated for 4 to 5 h at 37° C. The cells were washed twice with phosphate-buffered saline (PBS) and resuspended in BHIB supplemented with 10% (vol./vol.) fetal bovine serum at a density of approximately 10^10 colony forming units (CFU)/ml (based upon turbidimetry). The suspension was aliquoted and a portion was used to check the CFU count. The culture was stored frozen (−80° C.) and was used without subculture. For use as an inoculum the culture was thawed, diluted in PBS and kept in an ice bath until it was used.
# Animals were infected as described by O'Reilly et al. (Antimicrobial Agents and Chemotherapy (1992), 36(12): 2693-97) to generate the bone infection. Female CD rats (age, 57 to 70 days; n=5/group; Charles River, St-Constant, Canada) were anaesthetized by isofluorane before and during the surgery. Following complete induction of anesthesia, the rat was placed ventral side up and hair was shaved from the surgical site. The skin over the leg was cleaned and disinfected (proviodine-ethanol 70%). A longitudinal incision below the knee joint was made in the sagital plane. The incision was made over the bone below the “knee joint” (tibia head or condyle) but not completely extending to the ankle. A high speed drill fitted with a 2 mm bulb bit was used to drill a hole into the medullar cavity of the tibia. Rats were injected intra-tibially with 0.05 ml 5% sodium morrhuate (sclerosing agent) and then with 0.05 ml of S. aureus suspension (ca. 2×10^7 CFU/rat). The hole was sealed by applying a small amount of dry dental cement which immediately absorbs fluids and adheres to the site. The wound was closed using 3 metal skin clips. Moxifloxacin (as a positive control) was injected once at 10 mg/kg intravenously 1 h postinfection in saline, while the Rifabutin derived prodrugs (prepared in 0.9% saline) were injected at the dose indicated in Table 3 as a single intravenous bolus at different time points prior to the infection.
# Infected rats were sacrificed by CO2 asphyxiation 24 h postinfection to monitor the bacterial CFU count. Infected tibiae were removed, dissected free of soft tissue, and weighed. The bones were ground, 50 mg of charcoal were added and the powder was resuspended in 5 ml 0.9% NaCl, serially diluted and processed for quantitative cultures. Treatment efficacy was measured in terms of Log viable bacteria (Log CFU per gram of bone). […] The limit of detection is 2 Log CFU. Statistical comparisons of viable bacterial counts for the different treated and untreated groups were performed with the Dunnett's multiple-comparison test. Differences were considered significant when the P value was <0.05 when comparing treated infected animals to the untreated infected ones. The doses used, the amount of time separating the treatment from the time of infection and the treatment outcomes are shown in Table 3.
# S. aureus ATCC 13709 [5] = assay: microbe, parasite or virus in culture; format: cell-based; conditions: for Serum dependence of antibacterial activity (in words): MIC with versus without serum
# [6] = single intravenous bolus 1 day prior to infection
# [7] = single intravenous bolus 5 days prior to infection
SMILES,"Minimum inhibitory concentration, S. aureus ATCC 13709 (S. aureus ATCC 13709 [1]) [µg/mL]",Release of parent rifabutin from bone powder-bound prodrug (in words) [2],% Conversion (prodrug converted to parent drug after binding to bone) ([2]; 50% Heat Inactivated Rat Serum) [%],% Conversion (prodrug converted to parent drug after binding to bone) ([2]; 50% Rat Serum) [%],% Conversion (prodrug converted to parent drug after binding to bone) ([2]; PBS) [%],"Minimum inhibitory concentration, S. aureus ATCC 13709^A [3] [µg/mL]","Minimum inhibitory concentration, S. aureus ATCC 29213 (S. aureus ATCC 29213) [µg/mL]","Measured bacterial titer, test compound [4, 6]","Measured bacterial titer, test compound [4, 7]",Prophylactic activity in rat bone infection model (in words) [4],"Minimum inhibitory concentration, ATCC 13709 + 50% Human Serum (S. aureus ATCC 13709 [5]) [µg/mL]","Minimum inhibitory concentration, ATCC 13709 + 50% Mouse Serum (S. aureus ATCC 13709 [5]) [µg/mL]","Minimum inhibitory concentration, ATCC 13709 + 50% Rat Serum (S. aureus ATCC 13709 [5]) [µg/mL]",Serum dependence of antibacterial activity (in words) (S. aureus ATCC 13709 [5]),"Antibacterial activity (in words, from Table 1) (S. aureus ATCC 13709 [1]; S. aureus MIC)"
CCC(=O)OCOC(=O)N[C@@H](Cc1ccc(OCCCC(P(=O)(O)O)P(=O)(O)O)cc1)C(=O)N(C)CC(=O)O[C@@H]1[C@@H](C)[C@@H](O)[C@@H](C)[C@H](OC(C)=O)[C@H](C)[C@@H](OC)/C=C/O[C@@]2(C)Oc3c(C)c(O)c4c(c3C2=O)C2=NC3(CCN(CC(C)C)CC3)NC2=C(NC(=O)/C(C)=C\C=C\[C@@H]1C)C4=O.N.N [Compound 89],4,regeneration is clearly accelerated by the presence of serum,0.16 ± 0.04,0.18,0.02,>128,4,2.05 ± 0.07 Log CFU/g of bone,3.45 ± 1.36 Log CFU/g of bone,active at 1 day and display activity similar to rifabutin at 5 days,16,0.0625,0.0156,significant increase in antibacterial activity in serum,
CCC(=O)OCOC(=O)N[C@@H](CCCCNC(=O)CCC(P(=O)(O)O)P(=O)(O)O)C(=O)N(C)CC(=O)O[C@@H]1[C@@H](C)[C@@H](O)[C@@H](C)[C@H](OC(C)=O)[C@H](C)[C@@H](OC)/C=C/O[C@@]2(C)Oc3c(C)c(O)c4c(c3C2=O)C2=NC3(CCN(CC(C)C)CC3)NC2=C(NC(=O)/C(C)=C\C=C\[C@@H]1C)C4=O.N.N [Compound 95],4,regeneration is clearly accelerated by the presence of serum,0.13,0.14 ± 0.06,0.02,>128,4,2.3 ± 0.57 Log CFU/g of bone,3.75 ± 0.54 Log CFU/g of bone,active at 1 day and display activity similar to rifabutin at 5 days,16,0.0625,0.0156,significant increase in antibacterial activity in serum,
CCN(CC)CC.CCN(CC)CC.CO[C@H]1/C=C/O[C@@]2(C)Oc3c(C)c(O)c4c(c3C2=O)C2=NC3(CCN(CC(C)C)CC3)N(C(=O)OCc3ccc(OC(=O)CCCC(P(=O)(O)O)P(=O)(O)O)cc3)C2=C(NC(=O)/C(C)=C\C=C\[C@H](C)[C@H](O)[C@@H](C)[C@@H](O)[C@@H](C)[C@H](OC(C)=O)[C@@H]1C)C4=O [Compound 18],0.125,"release significant amounts of the parent rifabutin once bound to bone powder, regardless of the presence of serum",0.55 ± 0.20,0.95 ± 0.40,0.66 ± 0.03,>128,0.125,2.08 ± 0.02 Log CFU/g of bone,2.91 ± 1.33 Log CFU/g of bone,active at 1 day and display activity similar to rifabutin at 5 days,0.125,0.125,0.0156,,very low MICs whether in the absence or in the presence of serum
CCCC(=O)OCCN(CCCCC(P(=O)(O)O)P(=O)(O)O)CC(=O)O[C@@H]1[C@@H](C)[C@@H](O)[C@@H](C)[C@H](OC(C)=O)[C@H](C)[C@@H](OC)/C=C/O[C@@]2(C)Oc3c(C)c(O)c4c(c3C2=O)C2=NC3(CCN(CC(C)C)CC3)NC2=C(NC(=O)/C(C)=C\C=C\[C@@H]1C)C4=O [Compound 48a],2,,,,,>128,2,2.53 ± 0.94 Log CFU/g of bone,2.65 ± 0.85 Log CFU/g of bone,more potent than rifabutin at 5 days,8,2,0.25,significant increase in antibacterial activity in serum,
